Data reported in US20230348453A1, “HALOGENATED-HETEROARYL AND OTHER HETEROCYCLIC KINASE INHIBITORS, AND USES THEREOF” (iOmx Therapeutics AG, priority 2020, published 2023).

Tests used:
HCT116 cells = experiment: TNF-sensitised cell viability assay (CellTiter-Glo); conditions: Homo sapiens, HCT-116, read-out: HCT116 IC50 (at 10 ng/ml rHuTNF)
[1] = in vivo, po, 30 mg/kg
in vitro = conditions: human, microsomes
[2] = Human hepatocyte stability; format: in vitro ADME
[3] = Screening PK in mice after 30 mg/kg po; conditions: for concentration at 6 h: mice, 30 mg/kg po
MDR1 (P-gp) = MDR1 (P-gp) (Homo sapiens (Human), UniProt P08183); experiment: MDR1-MDCK effective efflux assay; conditions: dog; for efflux ratio: Table 5.1B
[4] = molecular target: MDR1 pump (P-gp), MDCK-MDR1 cells (Homo sapiens (Human), UniProt P08183); experiment: MDR1-MDCK effective efflux assay; conditions: Table 5.1B
PANC1 cells = experiment: TNF-sensitised cell viability assay (CellTiter-Glo); conditions: Homo sapiens, PANC-1, read-out: PANC IC50 (at 100 ng/ml rHuNF)
[5] = test system: MC38 colorectal carcinoma tumours; experiment: MC38 syngeneic mouse model, E9 and anti-PD-1 alone and in combination (Example 10); format: in vivo, C57Bl/6N mice; conditions: E9 25 mg/Kg twice daily and/or anti-PD-1 mAb
SIK3 = SIK3 (Homo sapiens (Human), UniProt Q9Y2K2); conditions: fold of the value of compound C7 (C7 = 1×)
[6] = MDCK wild type permeability/efflux; conditions: dog
[7] = Murine plasma protein binding
SIK2 = SIK2 (Homo sapiens (Human), UniProt Q9H0K1); experiment: SIK2 kinase inhibition (IC50); conditions: read-out: Kinase: IC50 (nM) SIK2
[8] = test system: NFKB activity in MC38 cells; experiment: TNF-induced NFKB activity (NFKB-dependent luciferase reporter); conditions: 10 ng/ml rMuTNF
[9] = total plasma concentration at 30 mg/kg p.o dose, fold of C7 (C7 = 1×)

With `Cc1nc(Nc2ncc(C(=O)Nc3c(CF)csc3Cl)s2)cc(N2CCN(C)CC2)n1` [Compound E9, N-(2-chloro-4-(fluoromethyl)thiophen-3-yl)-2-((2-methyl-6-(4-methylpiperazin-1-yl)pyrimidin-4-yl)amino)thiazole-5-carboxamide] the IC50 (HCT116 cells) was < 100 nM, the “% AUCextrap, Free” value ([1]; male, CD1, mouse) was 0.49% and the “% AUCextrap, Total” value ([1]; male, CD1, mouse) was 0.49%. For the same molecule, the “AUCinf (nM*h), Free” value ([1]; male, CD1, mouse) was 239.92 nM·h, the “AUClast (nM*h), Free” value ([1]; male, CD1, mouse) was 238.75 nM·h and the “Rsq, Free” value ([1]; mouse) was 0.84. For the same molecule, the “Rsq, Total” value ([1]; mouse) was 0.84, the half-life (in vitro) was 11 min and the microsomal CLint (in vitro) was 131 µL/min/mg. For the same molecule, the “Human hepatocyte stability, Half-life” value [2] was 24 min, the half-life ([2]; human, hepatocytes, read-out: Human hepatocyte stability, Half-life) was 21 to 30 min and the microsomal CLint ([2]; human, hepatocytes, read-out: Human hepatocyte stability, Intrinsic clearance) was 58 µL/min/mg. For the same molecule, the “fold improvement of free serum concentration over C7” value ([3]; mouse, in vivo) was 2 fold, the “fold improvement of total serum concentration over C7” value ([3]; mouse, in vivo) was 4.5 fold and the Cmax at 2 h ([3]; mouse, plasma, po, 30 mg/kg) was 426 ng/mL. The concentration at 6 h ([3]; mouse, plasma, po, 30 mg/kg, Free plasma concentration after 6 h (nM)) was 7.7 nM, the concentration at 6 h ([3]; mouse, plasma, po, 30 mg/kg, Plasma concentration after 6 h (nM)) was 309 nM and the “AUC0-last (nM*h), relative to C7” value [3, 9] was 8.2×. For the same molecule, the “C max (ng/ml), relative to C7” value [3, 9] was 5.6×, the “MRT0-last (h), relative to C7” value [3, 9] was 1.2× and the “t1/2 (h), relative to C7” value [3, 9] was 2×. It also gave a Papp (MDR1 (P-gp); MDCK-MDR1) of 5 ×10⁻⁶ cm/s, an efflux ratio (MDR1 (P-gp); MDCK-MDR1, MDCK-MDR1 cells, Mean Efflux Ratio (MDR1)) of 20 to 30 and an efflux ratio (MDR1 (P-gp); MDCK-MDR1, P-gP driven efflux ratio (MDR1/wt)) of 27. The “MDCK-MDR1 cells, Mean Efflux Ratio (MDR1)” value [4] was 26, the IC50 (PANC1 cells) was < 100 nM and the TGI [5] was 73%. The “SIK3 IC50 (nM), relative to C7” value (SIK3) was 0.3×, the Papp [6] was 10 ×10⁻⁶ cm/s and the efflux ratio [6] was 1. For the same molecule, the “Murine plasma protein binding, Percentage unbound (%)” value ([7]; Table 5.1A) was 1%, the recovery at 4 h ([7]; mouse, plasma) was 88% and the IC50 (SIK2) was < 10 nM. The “Inhibition of NFKB activity (MC38)” value [8] was “++”.
